The source of these data is ChEMBL document CHEMBL1142743, “8-Piperazinyl-2,3-dihydropyrrolo[3,2-g]isoquinolines: potent, selective, orally bioavailable 5-HT1 receptor ligands” (Bioorg Med Chem Lett, 2005).

For data set [1], the target named is T1, 5-hydroxytryptamine receptor 1B (Homo sapiens, UniProt P28222). In words: Mean binding affinity towards 5-hydroxytryptamine 1B receptor using [3H]5-HT or [3H]-8-OH-DPAT as the radioligand.
For data set [2], the target named is T1, 5-hydroxytryptamine receptor 1B. Nature of the data set: Partial agonist efficacy in the 5-HT1B GTPgammaS functional assay; Expressed as fraction of 5-HT efficacy.
For data set [3], the target named is T2, 5-hydroxytryptamine receptor 1A (Homo sapiens, UniProt P08908).
T2 sequence (P08908 whole entry): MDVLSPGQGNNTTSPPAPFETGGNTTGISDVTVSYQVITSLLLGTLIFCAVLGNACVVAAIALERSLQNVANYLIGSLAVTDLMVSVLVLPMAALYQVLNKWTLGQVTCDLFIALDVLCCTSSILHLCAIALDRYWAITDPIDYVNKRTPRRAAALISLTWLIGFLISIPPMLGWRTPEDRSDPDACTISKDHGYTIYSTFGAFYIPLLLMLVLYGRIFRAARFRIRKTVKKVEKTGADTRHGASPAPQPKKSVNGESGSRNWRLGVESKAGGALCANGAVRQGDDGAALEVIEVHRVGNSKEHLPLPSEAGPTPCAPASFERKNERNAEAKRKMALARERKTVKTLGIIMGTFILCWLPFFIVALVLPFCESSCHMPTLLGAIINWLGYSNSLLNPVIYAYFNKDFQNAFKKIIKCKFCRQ
Nature of the data set: Mean binding affinity towards 5-hydroxytryptamine 1A receptor using [3H]-5-HT or [3H]8-OH-DPAT as the radioligand.

In data set [4] the target is T3, 5-hydroxytryptamine receptor 1A (Homo sapiens) (UniProt P08908).
T3 sequence (whole entry): T2 sequence (P08908 whole entry)
Nature of the data set: Partial agonist efficacy in the 5-HT1A GTPgammaS functional assay; Expressed as fraction of 5-HT efficacy; Inactive.

Data set [5] has as its target 5-hydroxytryptamine receptor 1D (Homo sapiens, UniProt P28221). In words: Mean binding affinity towards 5-hydroxytryptamine 1D receptor using [3H]5-HT or [3H]-8-OH-DPAT as the radioligand.
Data set [6] concerns the target T3, 5-hydroxytryptamine receptor 1A (Homo sapiens). In words: Partial agonist efficacy in the 5-HT1A GTPgammaS functional assay; Expressed as fraction of 5-HT efficacy.
Data set [7] in a line: In vivo clearance after administration in rat. The settings on record: blood, read-out: CLb. The data set is classed as ADME, organism-based.
Data set [8] in a line: Oral bioavailability in rat. The conditions noted are these: in vivo. In kind it is ADME, organism-based.
The nature of data set [9]: Brain/blood concentration after administration in rat. The data set is classed as ADME, tissue-based. The conditions noted are these: read-out: Brain/Blood concentration.

Molecules are shown by their SMILES. Calls of active or inactive are those of the source. The rule behind the calls is not given here.

T1 sequence (P28222 whole entry): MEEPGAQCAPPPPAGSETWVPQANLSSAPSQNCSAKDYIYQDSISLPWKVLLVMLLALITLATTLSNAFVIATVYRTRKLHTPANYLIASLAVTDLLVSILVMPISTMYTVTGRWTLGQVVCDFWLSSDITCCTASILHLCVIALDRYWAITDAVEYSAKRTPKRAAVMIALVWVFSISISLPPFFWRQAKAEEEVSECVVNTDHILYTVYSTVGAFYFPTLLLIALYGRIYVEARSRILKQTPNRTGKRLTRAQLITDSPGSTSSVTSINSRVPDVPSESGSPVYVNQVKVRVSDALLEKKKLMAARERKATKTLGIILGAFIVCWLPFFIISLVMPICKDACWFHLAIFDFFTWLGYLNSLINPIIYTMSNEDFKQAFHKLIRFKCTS
Sequence of 5-hydroxytryptamine receptor 1D (P28221 whole entry): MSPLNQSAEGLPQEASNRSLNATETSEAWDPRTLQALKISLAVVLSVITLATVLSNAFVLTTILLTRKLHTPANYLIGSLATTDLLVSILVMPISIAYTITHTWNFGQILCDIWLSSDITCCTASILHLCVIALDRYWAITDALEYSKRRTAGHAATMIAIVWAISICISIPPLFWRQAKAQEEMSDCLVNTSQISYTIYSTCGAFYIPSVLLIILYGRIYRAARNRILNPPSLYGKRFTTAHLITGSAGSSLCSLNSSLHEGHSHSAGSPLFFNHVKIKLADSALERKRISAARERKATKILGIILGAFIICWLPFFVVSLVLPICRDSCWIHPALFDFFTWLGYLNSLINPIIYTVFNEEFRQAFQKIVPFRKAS

A word on the Ki: it is the equilibrium dissociation constant of an inhibitor or competing ligand from its target. A high value points to weaker binding. In the case of `CN1CCN(c2nccc3cc4c(cc23)N(C(=O)c2ccccc2C(F)(F)F)CC4)CC1`, the Ki in data set [1] was 15.8 nM; in data set [3], 10 nM; in data set [5] it was 15.8 nM. Besides, in data set [2], the Efficacy stood at 0.23. The Efficacy entry in [4] was “inactive”.
Regarding `CN1CCN(c2nccc3cc4c(cc23)N(C(=O)c2ccccc2Cl)CC4)CC1`, the Efficacy in data set [6] and in data set [2] was 0.42 in each case. The Ki in [1] was 1.26 nM; in data set [3], 5.01 nM; in data set [5], 2.51 nM.
Turning to `CCc1c(C(=O)N2CCc3cc4ccnc(N5CCNCC5)c4cc32)cnn1-c1ccc(C#N)cc1`, the Ki in data set [1] was 2.51 nM; in [3], 1.26 nM; in [5], 2.51 nM.
Consider `CCc1c(C(=O)N2CCc3cc4ccnc(N5CCN(CC)CC5)c4cc32)cnn1-c1ccc(C#N)cc1`, for which the figures for the Ki in data set [1], in data set [3] and in data set [5] were 1.58 nM, 3.16 nM and 2.51 nM, respectively.
In general, bioavailability refers to the share of a dose that reaches the circulation, judged against a reference dose that is usually intravenous. Read a low bioavailability as little systemic uptake. As to `Cc1nc(C)c(C(=O)N2CCc3cc4ccnc(N5CCN(C)CC5)c4cc32)o1`, the clearance in data set [7] stood at 2.34 L/h/kg. The inhibitory constant (Ki) in [1] was 15.8 nM; in data set [3], 6.31 nM; in [5], 2.51 nM. Moreover, in data set [8], the bioavailability is 55%. In data set [9], the Kp turned out to be 0.5.
Consider `CCc1c(C(=O)N2CCc3cc4ccnc(N5CCN(C)CC5)c4cc32)cnn1-c1ccc(C#N)cc1`, for which, in [7], the clearance worked out at 1.68 L/h/kg. In addition, the Efficacy in data set [6] worked out at 0.33; in data set [2], 0.47. Besides, the Ki in data set [1] is 1 nM; in data set [3] it was 1.26 nM; in data set [5] it was 0.631 nM. This compound returned a bioavailability in [8] of 50%. Moreover, in [9], the Kp is 0.5.
`CN1CCN(c2nccc3cc4c(cc23)N(C(=O)c2cnn3ccccc23)CC4)CC1`: the values for the Ki in data set [1], in [3] and in [5] were 1 nM, 0.316 nM and 1.26 nM, respectively.
For `CN1CCN(c2nccc3cc4c(cc23)N(C(=O)c2ccc(C#N)cc2)CC4)CC1`, the clearance in data set [7] amounted to 1.14 L/h/kg. The Efficacy in data set [6] came out at 0.84; in data set [2] it was 0.86. The results for the Ki in data set [1], in data set [3] and in [5] were 0.501 nM, 1 nM and 0.794 nM, respectively. In data set [9], the Kp amounted to 0.7.
For `CCc1c(C(=O)N2CCc3cc4ccnc(N5CCN6CCC[C@@H]6C5)c4cc32)cnn1-c1ccc(C#N)cc1`, the Ki is 1 nM in [1], 1.58 nM in data set [3] and 1 nM in data set [5].
As for `CN1CCN(c2nccc3cc4c(cc23)N(C(=O)c2cccc3ncccc23)CC4)CC1`, in [7], the clearance stood at 4.5 L/h/kg. In addition, the Ki is 0.794 nM in data set [1], 3.98 nM in data set [3] and 3.98 nM in [5]. In addition, the Kp in data set [9] came out at 0.2.
As for `CN1CCN(c2cc3c(cc2Cl)CCN3C(=O)Nc2ccc(-c3ccncc3)c3ccccc23)CC1`, the Ki was 7.94 nM in data set [1], 10 nM in [3] and 2 nM in data set [5].
On to `CN1CCN(c2nccc3cc4c(cc23)N(C(=O)c2ccc(Cl)cc2)CC4)CC1`, for which, in data set [7], the clearance was determined as 1.74 L/h/kg. The Efficacy is 0.69 in data set [6] and 0.75 in data set [2]. Also, the Ki in data set [1] was 0.316 nM; in data set [3], 0.794 nM; in data set [5], 0.501 nM. Further, the Kp in data set [9] amounted to 1.3.
Regarding `CCc1c(C(=O)N2CCc3cc4ccnc(N5CCN6CCC[C@H]6C5)c4cc32)cnn1-c1ccc(C#N)cc1`, the Ki in data set [1] was 2 nM; in data set [3] it was 1.26 nM; in data set [5] it was 3.16 nM.
Turning to `CN1CCN(c2nccc3cc4c(cc23)N(C(=O)c2cnn(C)c2C(F)(F)F)CC4)CC1`, the clearance in data set [7] came to 2.88 L/h/kg. In addition, the Ki in data set [1] was 5.01 nM; in data set [3], 6.31 nM; in data set [5], 10 nM. In addition, the Kp in [9] came out at 0.1.
Consider `CCc1c(C(=O)N2CCc3cc4ccnc(N5C[C@@H](C)N[C@@H](C)C5)c4cc32)cnn1-c1ccc(C#N)cc1`, for which the Ki in data set [1] is 7.94 nM; in [3], 31.6 nM; in data set [5], 7.94 nM.
With `Cc1c(C(=O)N2CCc3cc4ccnc(N5CCN(C)CC5)c4cc32)cnn1-c1ccccc1`, the clearance in [7] amounted to 1.92 L/h/kg. The Efficacy came out at 0.54 in data set [6] and 0.59 in data set [2]. The Ki in data set [1], in data set [3] and in data set [5] was 0.631 nM each time. In [8], this compound showed a bioavailability of 40%. The Kp in [9] amounted to 1.1.
For the compound `CN1CCN(c2nccc3cc4c(cc23)N(C(=O)c2ccc(C(F)(F)F)nc2)CC4)CC1`, the results for the Ki in data set [1], in data set [3] and in data set [5] were 0.251 nM, 3.16 nM and 0.501 nM, respectively.
For `Cc1cc(C(=O)N2CCc3cc4ccnc(N5CCN(C)CC5)c4cc32)c(C(F)(F)F)o1` the same measures were 2 nM, 5.01 nM and 7.94 nM.
In the same order, the values of `CCc1c(C(=O)N2CCc3cc4ccnc(N5CCN(C(C)C)CC5)c4cc32)cnn1-c1ccc(C#N)cc1` are 3.98 nM, 6.31 nM and 7.94 nM.
